These results are taken from ChEMBL document CHEMBL1201862, “PubChem BioAssay data set” (2004).

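Where inhibition never reached the appropriate level, the endpoint shown equals the highest concentration tested. Otherwise, values were interpolated linearly from a five-concentration, 48-hour dose response in 96-well plates. GI50: concentration for 50% inhibition of growth.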 Active and inactive are the calls of the source. No stated cut-off is given here; in the data, active = GI50 up to about 1.1 µM and inactive = higher.

What all share (experiment): NCI anticancer screen, dose series, 48 h
The subject of experiment [1] is 786-0.
Experiment [2] relates to A549.
For experiment [3], the system named is BT-549.
For experiment [4], the system named is CCRF-CEM.
The test system of experiment [5] is COLO 205.
The test system of experiment [6] is DU-145.
Experiment [7] relates to HCT-15.
Experiment [8] relates to IGROV-1.
In experiment [9] the test system is LOX IMVI.
The test system of experiment [10] is MDA-MB-435.
The subject of experiment [11] is MDA-N.
The test system of experiment [12] is MOLT-4.
Experiment [13] deals with Malme-3M.
The test system of experiment [14] is NCI-H226.
In experiment [15] the test system is NCI/ADR-RES.
For experiment [16], the system named is RPMI-8226.
Experiment [17] concerns SK-MEL-5.
In experiment [18] the test system is SNB-19.
In experiment [19] the test system is U-251.
The subject of experiment [20] is A498.

With `CCN(CC)c1ccc2cc(-c3csc(-c4ccc(N(C)C)cc4)n3)c(=O)oc2c1`, the GI50 in [1], in experiment [2], in experiment [3], in experiment [4], in experiment [5] and in experiment [6] was > 100 µM (inactive) in each case. The GI50 is over 100 µM in experiment [7]; > 100 µM (inactive) in experiment [8]; > 100 µM (inactive) in [9]; > 100 µM (inactive) in experiment [10]; > 100 µM (inactive) in experiment [11]; > 100 µM (inactive) in [12]. The GI50 in experiment [13], in [14], in [15], in experiment [16], in experiment [17] and in [18] was > 100 µM (inactive) each time. Besides, the GI50 in experiment [19] is > 100 µM (inactive).
Take `O=C(Cc1ccc(Cl)c(Cl)c1)NCC1(N2CCCCC2)CCCCC1`: the GI50 in experiment [1] is 39.3 µM (inactive); in [20], 60.7 µM (inactive); in [2], 41.4 µM (inactive); in experiment [3], 55.5 µM (inactive); in experiment [4], 51.3 µM (inactive); in experiment [6], 61 µM (inactive). The GI50 was 38.7 µM in experiment [7]; > 100 µM (inactive) in [8]; 36.6 µM (inactive) in experiment [9]; 46.3 µM (inactive) in experiment [10]; 37 µM (inactive) in experiment [11]; 35.5 µM (inactive) in experiment [12]. For the same compound, the GI50 was 21.3 µM (inactive) in [13]; 93.5 µM (inactive) in experiment [15]; 35.3 µM (inactive) in experiment [16]; > 100 µM (inactive) in experiment [18]; 69.3 µM (inactive) in experiment [19].
Consider `Cc1ccc(S(=O)(=O)CNC(=O)C(O)(O)C(F)(F)F)cc1`, for which the GI50 in experiment [1], in experiment [20], in experiment [2], in [3], in experiment [4] and in experiment [5] was > 100 µM (inactive) each time. Besides, the GI50 is > 100 µM (inactive) in experiment [6]; over 100 µM in experiment [7]; > 100 µM (inactive) in experiment [8]; > 100 µM (inactive) in [9]; > 100 µM (inactive) in experiment [10]; > 100 µM (inactive) in experiment [11]. Besides, the GI50 in [12], in experiment [13], in experiment [15], in experiment [16], in [17] and in experiment [18] was > 100 µM (inactive) in each case. Besides, in [19], the GI50 was > 100 µM (inactive).
Turning to `N#CC1(C#N)C2CCCCC23OC(=N)C1(C#N)C(c1ccccc1)O3` (centres undefined), the GI50 was 14.6 µM (inactive) in [1]; 17.8 µM (inactive) in experiment [20]; > 100 µM (inactive) in experiment [2]; 16.8 µM (inactive) in experiment [3]; 5.24 µM (inactive) in experiment [4]; 13.4 µM (inactive) in experiment [5]. Moreover, the GI50 was 20.5 µM (inactive) in experiment [6]; 12.4 µM in experiment [7]; 19 µM (inactive) in experiment [8]; 17.3 µM (inactive) in experiment [9]; 25.6 µM (inactive) in [10]; 14 µM (inactive) in [11]. Moreover, the GI50 in experiment [12] was 25.1 µM (inactive); in [13] it was 17 µM (inactive); in experiment [14], > 100 µM (inactive); in experiment [15], 41.5 µM (inactive); in experiment [17] it was 16.1 µM (inactive); in experiment [18], 45.9 µM (inactive). Moreover, in [19], the GI50 is 17.6 µM (inactive).
Take `Clc1ccc(OCC2NC3C=CC32)cn1` (centres undefined): the GI50 was > 100 µM (inactive) in [1]; > 100 µM (inactive) in experiment [2]; > 100 µM (inactive) in [3]; 56.9 µM (inactive) in experiment [4]; > 100 µM (inactive) in [5]; > 100 µM (inactive) in experiment [6]. Further, the GI50 in [7] is over 100 µM; in experiment [8], > 100 µM (inactive); in experiment [9], > 100 µM (inactive); in experiment [10], > 100 µM (inactive); in experiment [11] it was > 100 µM (inactive); in experiment [12], 56 µM (inactive). Besides, the GI50 in [13] was > 100 µM (inactive); in [14] it was > 100 µM (inactive); in experiment [15], > 100 µM (inactive); in [16], 34.4 µM (inactive); in experiment [17] it was > 100 µM (inactive); in experiment [18], > 100 µM (inactive). For the same compound, the GI50 in experiment [19] was > 100 µM (inactive).
On to `O=[N+]([O-])c1ccc(O)c(/C=N/CC2CCCN3CCCCC23)c1` (centres undefined), for which the GI50 in experiment [1] was 38.8 µM (inactive); in [2], 91.4 µM (inactive); in experiment [3], 38.6 µM (inactive); in [5] it was 24.2 µM (inactive); in [6], 42.2 µM (inactive); in experiment [7], 41.1 µM. Moreover, the GI50 in experiment [8] is 43.9 µM (inactive); in experiment [9], 38.8 µM (inactive); in experiment [11], 44.8 µM (inactive); in experiment [13], 31 µM (inactive); in experiment [14] it was 26.5 µM (inactive); in experiment [15], 20.7 µM (inactive). In addition, the figures for the GI50 in experiment [17] and in experiment [18] were 19.3 µM (inactive) and 25.1 µM (inactive), respectively.
Regarding `CCOC(=O)N/N=C(/N)c1cccc([N+](=O)[O-])c1`, the GI50 in experiment [1], in [20], in experiment [2], in experiment [3], in experiment [4] and in [5] was > 100 µM (inactive) in each case. Besides, the GI50 in experiment [6] is > 100 µM (inactive); in experiment [7], over 100 µM; in experiment [8], > 100 µM (inactive); in experiment [9], > 100 µM (inactive); in experiment [10], > 100 µM (inactive); in experiment [11] it was > 100 µM (inactive). For the same compound, the GI50 in [12], in experiment [13], in experiment [15], in experiment [17], in experiment [18] and in experiment [19] was > 100 µM (inactive) in each case.
Regarding `COc1cc([N+](=O)[O-])c(S(=O)(=O)O)cc1-n1nc(C(=O)Nc2ccccc2)n[n+]1-c1cc(S(=O)(=O)[O-])c([N+](=O)[O-])cc1OC`, the GI50 in experiment [1], in experiment [2], in experiment [3], in experiment [4], in experiment [5] and in [6] was > 100 µM (inactive) throughout. Also, the GI50 in experiment [7] is 45.4 µM; in experiment [8], > 100 µM (inactive); in experiment [9] it was 9.84 µM (inactive); in experiment [10], 85.5 µM (inactive); in experiment [11] it was > 100 µM (inactive); in experiment [12], > 100 µM (inactive). In addition, the GI50 in [13], in [14], in experiment [15], in [16], in experiment [17] and in [18] was > 100 µM (inactive) each time. Further, the GI50 in experiment [19] is 97.7 µM (inactive).
Consider `O=S(=O)(O)c1cc(S(=O)(=O)O)c2c(/N=N/c3ccc(S(=O)(=O)O)c4ccccc34)c(O)ccc2c1`, for which the GI50 in [1], in [2], in experiment [3], in experiment [4], in experiment [5] and in experiment [6] was > 100 µM (inactive) in each case. The GI50 is over 100 µM in [7]; > 100 µM (inactive) in [8]; > 100 µM (inactive) in [9]; > 100 µM (inactive) in experiment [10]; > 100 µM (inactive) in [11]; > 100 µM (inactive) in [12]. Moreover, the GI50 was 21.9 µM (inactive) in [13]; > 100 µM (inactive) in experiment [14]; > 100 µM (inactive) in experiment [15]; > 100 µM (inactive) in experiment [16]; > 100 µM (inactive) in [17]; > 100 µM (inactive) in experiment [18]. Further, the GI50 in experiment [19] was > 100 µM (inactive).
For the compound `Cc1ccc(-n2nnc(C(N)=O)c2O)cc1`, the GI50 in experiment [1], in experiment [2], in experiment [3], in experiment [4], in experiment [5] and in experiment [6] was > 100 µM (inactive) throughout. Further, the GI50 in experiment [7] was over 100 µM; in experiment [8], > 100 µM (inactive); in [10] it was > 100 µM (inactive); in experiment [11] it was > 100 µM (inactive); in [12], > 100 µM (inactive); in experiment [13], > 100 µM (inactive). The GI50 in experiment [14], in experiment [15], in [16], in [17], in experiment [18] and in [19] was > 100 µM (inactive) each time.
`Nc1ccc2c(c1)Cc1ccccc1-2`: the GI50 is > 100 µM (inactive) in [1]; 49 µM (inactive) in experiment [20]; 65 µM (inactive) in experiment [2]; 48.2 µM (inactive) in [3]; 23.6 µM (inactive) in experiment [4]; > 100 µM (inactive) in experiment [5]. The GI50 was 62.2 µM in experiment [7]; 89.9 µM (inactive) in experiment [8]; 80.7 µM (inactive) in experiment [9]; > 100 µM (inactive) in [10]; > 100 µM (inactive) in experiment [11]; 34.7 µM (inactive) in experiment [12]. Moreover, the GI50 in experiment [13] is > 100 µM (inactive); in [14] it was > 100 µM (inactive); in experiment [15], > 100 µM (inactive); in experiment [17], 66.2 µM (inactive); in experiment [18], > 100 µM (inactive); in experiment [19], > 100 µM (inactive).
